Laboratory results from patent publication US20160031985A1, “CHARGE-ENGINEERED ANTIBODIES OR COMPOSITIONS OF PENETRATION-ENHANCED TARGETING PROTEINS AND METHODS OF USE” (PERMEON BIOLOGICS, INC., priority 2013, published 2016).

B1: +2GFP-C6.5: fusion of +2GFP and C6.5; a or b variant not stated (protein)
scFv: QVQLLQSGAELKKPGESLKISCKGSGYSFTSYWIAWVRQMPGKGLEYMGLIYPGDSDTKYSPSFQGQVTISVDKSVSTAYLQWSSLKPSDSAVYFCARHDVGYCSSSNCAKWPEYFQHWGQGTLVTVSSGGGGSGGGGSGGGGSQSVLTQPPSVSAAPGQKVTISCSGSSSNIGNNYVSWYQQLPGTAPKLLIYGHTNRPAGVPDRFSGSKSGTSASLAISGFRSEDEADYYCAAWDDSLSGWVFGGGTKLTVLGGHGHHHHHH
modifications: left off: large carriers; small tags and cut ends

Key:
Assay type in all cases: cell-based
[1] = test system: MDA-MB-468 (Her2^−) cells; assay: Internalization of GFP proteins by flow cytometry (Example 4); settings: 1 μM protein, 2 hours, serum free media, untreated cells 4,064
Description: MDA-MB-468 cells express an insignificant level of Her2 compared to unstained background and are considered Her2 negative (referred to as Her2), whereas AU565 cells express a high level of Her2 (referred to as Her2^+).
The media were replaced with serum free media containing 1 μM of a protein listed below, and incubated for 2 hours. Cells were washed 3×PBS, trypsinized, fixed with 4% PFA, washed with PBS and then analyzed by flow cytometry with detection of GFP.
Results: Flow cytometry analysis is indicative of the amount of protein internalized into the cells. FIGS. 9A and 9B show the flow cytometry data obtained for different tested samples at various conditions. The median fluorescence values obtained from the flow cytometry peak minus the median fluorescence values of untreated cells (background fluorescence) are shown in FIGS. 10A and 10B. See also Table 7. The first column indicates identifies the GFP-component of the construct used for the particular sample treatment. The second and third columns represents fluorescence in MDA-MB-468 cells following treatment with each of the GFP proteins alone (second column; examples of use of CPMs alone) or with each of the GFP-C6.5 fusion proteins (third column; examples of fusion proteins comprising a target-binding region and a CPM region). The fourth and fifth column fluorescence in AU565 cells following treatment with each of the GFP proteins alone (fourth column; examples of use of CPMs alone) or with each of the GFP-C6.5 fusion proteins (fifth column; examples of fusion proteins comprising a target-binding region and a CPM region).

[2] = test system: MDA-MB-468 (Her2^−) cells; assay: Time course of cellular uptake in mixed cell populations, flow cytometry (Example 6); settings: Her2− (MDA-MB-468), 0.1 μM, untreated 4,134
Description: (§1) The media were replaced with serum free media containing 0.1 μM of protein listed below and incubated for 10 minutes, 30 minutes or 4 hours. Cells were washed 3×PBS, trypsinized, stained with Her2 Antibody-APC for 0.5 hours, washed with PBS and then analyzed by flow cytometry with detection of GFP.

[3] = test system: AU565 (Her2^+) cells; assay: as above; settings: 0.1 μM, untreated 6,081
Description: as §1

[4] = test system: MDA-MB-468 (Her2^−) cells; assay: Cellular uptake in mixed cell populations, flow cytometry with Her2 Ab-APC gating (Example 5); settings: 2 h, mixed cell population; for Median Fluorescence Values, first set: MDA-MB-468 cells (Her2−), untreated 4,303; for Median Fluorescence Values, second set: Her2− (MDA-MB-468), untreated 4,776
Description: (§2) The media were replaced with serum free media containing indicated concentrations of protein listed below and incubated for 2 h. Cells were washed 3×PBS, trypsinized, fixed with 4% PFA, stained with Her2 Ab-APC for 0.5 hour, washed with PBS and then analyzed by flow cytometry with detection of GFP.
(§3) The tested proteins of the first and second sets of experiments were applied to the mixed cell population for two hours.
(§4) The above data were also plotted in FIGS. 13A-13H to show the median fluorescence value minus background fluorescence of untreated cells (background adjusted fluorescence) (Y-axis) as a function of concentration (X-axis) for each of the tested proteins in this Example. Cellular uptake of the proteins was measured by GFP fluorescence. Her2 expression level was measured by using a Her2 antibody conjugated with allophycocyanin (APC). Gating was applied to the flow cytometry data to identify Her2^low versus Her2^high populations. […] The Her2^− profiles (diamond) are indicative of the profile of charged GFP alone. The Her2^− profiles (square) are indicative of the profile of the charged GFP in combination with the target-binding region—C6.5 scFv. The data of sfGFP-C6.5 on the Her2^high cells reflects the profile of the target-binding region (C6.5) by itself.

[5] = test system: AU565 (Her2^+) cells; assay: as above; settings: 2 h, mixed cell population; for Median Fluorescence Values, first set: AU565 cells (Her2+), untreated 6,875; for Median Fluorescence Values, second set: Her2+ (AU565), untreated 11,162
Description: as §2, §3, §4

[6] = test system: AU565 (Her2^+) cells; assay: Internalization of GFP proteins by flow cytometry (Example 4); settings: 1 μM protein, 2 hours, serum free media, untreated cells 5,713
Description: The levels of Her2 expressed on cell surface were measured in flow cytometry after staining the cells with a commercial antibody against Her2, Anti-Her2-APC (BD Bioscience, catalog #340554). MDA-MB-468 cells express an insignificant level of Her2 compared to unstained background and are considered Her2 negative (referred to as Her2), whereas AU565 cells express a high level of Her2 (referred to as Her2^+).
Results: Flow cytometry analysis is indicative of the amount of protein internalized into the cells. […] The median fluorescence values obtained from the flow cytometry peak minus the median fluorescence values of untreated cells (background fluorescence) are shown in FIGS. 10A and 10B.

[7] = test system: SKOV-3 cells (Her2^+); assay: Cellular uptake of GFP proteins by fluorescence microscopy; settings: 1 μM of proteins, 1 hour
Description: These images were taken to assess cellular uptake of these GFP-containing proteins by fluorescence microscopy. The images shown are an overlay of phase contrast and GFP fluorescence images.
In addition, SKOV-3 cells (Her2) were treated with 1 μM of proteins for 1 hour, and then images were taken to assess cellular uptake of GFP proteins by fluorescence microscopy (FIG. 11A).

Molecule | Median fluorescence (GFP, flow cytometry) [1] | Internalization over time (GFP fluorescence, flow cytometry) ([2]; 10 min) | Internalization over time (GFP fluorescence, flow cytometry) ([2]; 30 min) | Internalization over time (GFP fluorescence, flow cytometry) ([2]; 4 h) | Internalization over time (GFP fluorescence, flow cytometry) ([3]; 10 min) | Internalization over time (GFP fluorescence, flow cytometry) ([3]; 30 min) | Internalization over time (GFP fluorescence, flow cytometry) ([3]; 4 h) | Median Fluorescence Values, first set ([4]; 0.03 uM) | Median Fluorescence Values, first set ([4]; 0.1 uM) | Median Fluorescence Values, first set ([4]; 0.3 uM) | Median Fluorescence Values, first set ([4]; 1 uM) | Median Fluorescence Values, first set ([5]; 0.03 uM) | Median Fluorescence Values, first set ([5]; 0.1 uM) | Median Fluorescence Values, first set ([5]; 0.3 uM) | Median Fluorescence Values, first set ([5]; 1 uM) | Median fluorescence (GFP, flow cytometry) [6] | binding and cellular uptake by fluorescence microscopy [7] | Median Fluorescence Values, second set ([4]; 0.1 uM) | Median Fluorescence Values, second set ([4]; 0.3 uM) | other results
+15GFP-C6.5: fusion of +15GFP (CPM) and anti-Her2 scFv C6.5 via (S4G)6 spacer; SEQ ID NO: 14 | 313,629 | 10,665 | 22,262 | 144,923 | 18,606 | 35,981 | 148,261 | 13,012 | 36,343 | 76,116 | 155,734 | 37,663 | 74,673 | 128,374 | 180,065 | 413,838 | – | – | – | –
C6.5-+15GFP: fusion with C6.5 N-terminal to +15GFP; SEQ ID NO: 16 | 767,627 | 13,517 | 17,194 | 96,599 | 37,044 | 61,007 | 184,844 | 13,355 | 36,070 | 82,571 | 306,260 | 75,821 | 162,337 | 305,944 | 822,351 | 2,170,916 | internalized efficiently in the cells | – | – | –
sfGFP-C6.5: control fusion of sfGFP and anti-Her2 scFv C6.5, not positively charged; SEQ ID NO: 13 [reference compound] | 5,632 | 4,081 | 3,986 | 4,704 | – | – | – | – | – | – | – | – | – | – | – | – | – | 4,824 | 4,947 | Median Fluorescence Values, second set ([4]; 0.03 uM): 4,460
sfGFP: superfolder GFP with His6 tag, not positively charged; SEQ ID NO: 10 [reference compound] | 5,115 | 3,887 | 4,025 | 4,067 | 5,952 | 6,024 | 5,924 | – | – | – | – | – | – | – | – | 5,896 | – | 4,519 | 5,245 | Median Fluorescence Values, second set ([5]; 0.1 uM): 10,937; Median Fluorescence Values, second set ([5]; 0.3 uM): 12,131
B1 | – | – | – | – | – | – | – | – | – | – | – | – | – | – | – | – | bound to SKOV-3 cells through Her2 but did not internalize in the cells | – | – | –
